Results reported in PubChem BioAssay (NCI).
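Tested at 5 concentrations; 48 h exposure; 96-well plates; endpoints linearly interpolated, else capped at highest concentration. GI50 is the concentration that inhibits growth by half. TGI: total growth inhibition.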

Legend:
Assay in all cases: inhibition of tumour cell growth, NCI panel, 48 h
[1] = system: HS 578T breast
[2] = system: MDA-MB-468 breast
[3] = system: NCI-H460 lung
[4] = system: HT29 colon
[5] = system: T-47D breast
[6] = system: MDA-MB-435
[7] = system: HOP-92 NSCLC
[8] = system: OVCAR-5 ovarian
[9] = system: BT-549 breast
[10] = system: SW-620 colon
[11] = system: SF-268 CNS
[12] = system: M14 melanoma
[13] = system: NCI/ADR-RES ovarian
[14] = system: OVCAR-3 ovarian
[15] = system: PC-3 prostate
[16] = system: K-562 leukemia
[17] = system: CAKI-1 renal
[18] = system: EKVX NSCLC
[19] = system: ACHN renal
[20] = system: UACC-62 melanoma
[21] = system: A549 NSCLC
[22] = system: MCF7 breast
[23] = system: MALME-3M melanoma
[24] = system: HL-60(TB) leukemia
[25] = system: SK-MEL-2 melanoma
[26] = system: KM12 colon
[27] = system: OVCAR-4 ovarian
[28] = system: NCI-H23 lung
[29] = system: SF-539 CNS
[30] = system: 786-0 renal
[31] = system: SNB-19 CNS
[32] = system: LOX IMVI melanoma
[33] = system: SN12C renal
[34] = system: U251 CNS
[35] = system: HCT-116 colon
[36] = system: RPMI-8226 leukemia
[37] = system: SK-OV-3 ovarian
[38] = system: SK-MEL-28 melanoma
[39] = system: TK-10 renal
[40] = system: HOP-62 NSCLC
[41] = system: RXF 393 renal
[42] = system: SR leukemia
[43] = system: UO-31 renal
[44] = system: NCI-H522 lung
[45] = system: HCC-2998 colon
[46] = system: COLO 205 colon
[47] = system: SNB-75 CNS
[48] = system: IGROV1 ovarian
[49] = system: HCT-15 colon
[50] = system: MDA-MB-231 breast
[51] = system: UACC-257 melanoma
[52] = system: MOLT-4 leukemia
[53] = system: OVCAR-8 ovarian
[54] = system: DU-145 prostate
[55] = system: SK-MEL-5 melanoma
[56] = system: SF-295 CNS
[57] = system: A498 renal
[58] = system: NCI-H226 lung

`CN1CCN(c2ccc(Nc3nc(NCCNC(=O)c4ccc(C(F)(F)F)cc4)c4sccc4n3)cc2)CC1` was tested, and the GI50 [1] was 4.19 µM, the TGI [1] was 23.2 µM and the GI50 [2] was 2.26 µM. It also gave a TGI [2] of 9.44 µM, a GI50 [3] of 13.3 µM and a TGI [3] of 28.7 µM. For the same compound, the GI50 [4] was 3.53 µM, the TGI [4] was 12.6 µM and the GI50 [5] was 10.8 µM. For the same compound, the TGI [5] was 31.1 µM, the GI50 [6] was 3.5 µM and the TGI [6] was 11 µM. The GI50 [7] was 4.66 µM, the TGI [7] was 18.9 µM and the GI50 [8] was 15.1 µM. For the same compound, the TGI [8] was 30.5 µM, the GI50 [9] was 12.3 µM and the TGI [9] was 25.1 µM. The GI50 [10] was 12.7 µM, the TGI [10] was 26.4 µM and the GI50 [11] was 11.1 µM. It also gave a TGI [11] of 31.4 µM, a GI50 [12] of 1.88 µM and a TGI [12] of 3.63 µM. It also gave a GI50 [13] of 16.1 µM, a TGI [13] of 39.5 µM and a GI50 [14] of 14.4 µM. For the same compound, the TGI [14] was 32 µM, the GI50 [15] was 10.4 µM and the TGI [15] was 26.9 µM. For the same compound, the GI50 [16] was 2.24 µM, the TGI [16] was 8.8 µM and the GI50 [17] was 9.24 µM. The TGI [17] was 21.7 µM, the GI50 [18] was 13.9 µM and the TGI [18] was 29.2 µM. It also gave a GI50 [19] of 13.4 µM, a TGI [19] of 27.9 µM and a GI50 [20] of 2.01 µM. It also gave a TGI [20] of 4.79 µM, a GI50 [21] of 11.7 µM and a TGI [21] of 30.8 µM. The GI50 [22] was 4.06 µM, the TGI [22] was 15.7 µM and the GI50 [23] was 1.77 µM. It also gave a TGI [23] of 3.16 µM, a GI50 [24] of 3.49 µM and a TGI [24] of 15.8 µM. It also gave a GI50 [25] of 15.7 µM, a TGI [25] of 29.7 µM and a GI50 [26] of 14 µM. It also gave a TGI [26] of 30.8 µM, a GI50 [27] of 13.6 µM and a TGI [27] of 48.1 µM. The GI50 [28] was 14.6 µM, the TGI [28] was 29.6 µM and the GI50 [29] was 2.12 µM. The TGI [29] was 4.6 µM, the GI50 [30] was 3.24 µM and the TGI [30] was 13.1 µM. For the same compound, the GI50 [31] was 14.2 µM, the TGI [31] was 27.5 µM and the GI50 [32] was 2.66 µM. The TGI [32] was 8.84 µM, the GI50 [33] was 12.9 µM and the TGI [33] was 25.7 µM. It also gave a GI50 [34] of 3.54 µM, a TGI [34] of 13.8 µM and a GI50 [35] of 4.25 µM. The TGI [35] was 15.2 µM, the GI50 [36] was 1.88 µM and the TGI [36] was 4.54 µM. For the same compound, the GI50 [37] was 17.3 µM, the TGI [37] was 33.4 µM and the GI50 [38] was 2.13 µM. The TGI [38] was 3.99 µM, the GI50 [39] was 16.6 µM and the TGI [39] was 30.8 µM. For the same compound, the GI50 [40] was 15.1 µM, the TGI [40] was 30.7 µM and the GI50 [41] was 2.67 µM. It also gave a TGI [41] of 10.3 µM, a GI50 [42] of 1.9 µM and a TGI [42] of 5.21 µM. The GI50 [43] was 11.8 µM, the TGI [43] was 24.1 µM and the GI50 [44] was 4.21 µM. For the same compound, the TGI [44] was 16.7 µM, the GI50 [45] was 4.55 µM and the TGI [45] was 15.5 µM. It also gave a GI50 [46] of 7.4 µM, a TGI [46] of 22.6 µM and a GI50 [47] of 6.55 µM. For the same compound, the TGI [47] was 20.7 µM, the GI50 [48] was 12.9 µM and the TGI [48] was 26 µM. The GI50 [49] was 3.33 µM, the TGI [49] was 13.9 µM and the GI50 [50] was 3.72 µM. It also gave a TGI [50] of 14.4 µM, a GI50 [51] of 1.75 µM and a TGI [51] of 3.39 µM. For the same compound, the GI50 [52] was 3.64 µM, the TGI [52] was 16.5 µM and the GI50 [53] was 10.8 µM. For the same compound, the TGI [53] was 28 µM, the GI50 [54] was 14.2 µM and the TGI [54] was 27.9 µM. It also gave a GI50 [55] of 2.3 µM, a TGI [55] of 5.99 µM and a GI50 [56] of 3.52 µM. For the same compound, the TGI [56] was 13.6 µM, the GI50 [57] was 17.1 µM and the TGI [57] was 31 µM. For the same compound, the GI50 [58] was 14 µM and the TGI [58] was 29.8 µM.
